This note sets out measurements from US12404265B2, “Substituted pyridine derivatives as SARM1 inhibitors” (Nura Bio, Inc., priority 2020, dated 2025).

The target of the test is T1, human SARM1(50-724) (Homo sapiens, UniProt Q6SZW1).
T1 construct: 40 nM human SARM1(50-724)
T1 sequence (Q6SZW1 50-724): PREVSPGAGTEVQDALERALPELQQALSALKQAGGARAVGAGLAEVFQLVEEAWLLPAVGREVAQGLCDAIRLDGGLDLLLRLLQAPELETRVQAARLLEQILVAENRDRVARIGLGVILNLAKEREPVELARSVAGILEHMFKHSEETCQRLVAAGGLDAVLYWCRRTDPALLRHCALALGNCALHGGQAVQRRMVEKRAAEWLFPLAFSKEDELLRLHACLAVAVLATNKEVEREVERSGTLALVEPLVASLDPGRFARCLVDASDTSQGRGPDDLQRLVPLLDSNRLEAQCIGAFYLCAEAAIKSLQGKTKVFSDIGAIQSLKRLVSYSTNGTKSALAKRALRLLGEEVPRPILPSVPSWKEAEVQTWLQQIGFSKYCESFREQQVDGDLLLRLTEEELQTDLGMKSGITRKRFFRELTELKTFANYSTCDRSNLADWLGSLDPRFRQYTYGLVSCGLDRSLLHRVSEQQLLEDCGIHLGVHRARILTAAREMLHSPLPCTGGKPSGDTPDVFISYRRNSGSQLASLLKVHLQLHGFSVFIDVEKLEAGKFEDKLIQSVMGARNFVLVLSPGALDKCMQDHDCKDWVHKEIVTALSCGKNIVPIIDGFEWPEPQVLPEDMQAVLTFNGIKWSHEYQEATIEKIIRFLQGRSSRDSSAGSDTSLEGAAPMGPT
The test is described as follows: SARM1 NADase biochemical assay (HPLC of NAD and NAM). Conditions: 40 nM human SARM1(50-724), 0.3 mM NMN, 20 μM NAD, 60 minutes room temperature; dose-response from 100 μM, 1:3 dilution. A digest of the protocol: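 Human SARM1(50-724) at 40 nM with 0.3 mM NMN, 20 μM NAD, 1 mM TCEP in 25 mM HEPES pH 7.4, 10 mM KCl, 10 mM MgCl2, 1% DMSO; 60 min at room temperature, formic acid quench. NAD and NAM quantified by reverse-phase HPLC peak area; single point 50 μM or 1:3 series from 100 μM.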

For the compound `Cc1c(-c2ccncc2)n[nH]c1NC(=O)C(F)Cc1ccc(C#N)c(F)c1` (racemic) [Example 70, (rac)-3-(4-Cyano-3-fluorophenyl)-2-fluoro-N-(4-methyl-3-(pyridin-4-yl)-1H-pyrazol-5-yl)propanamide], the IC50 (in general, the concentration that inhibits the measured activity by half) lay within 1 to 10 µM.

Regarding `Cc1c(-c2ccncc2)n[nH]c1NC(=O)CCc1ccc(C#N)c(F)c1` [Example 53, 3-(4-Cyano-3-fluorophenyl)-N-(4-methyl-3-(pyridin-4-yl)-1H-pyrazol-5-yl)propanamide], the 50% inhibitory concentration (IC50) is under 1 µM.

Consider `N#Cc1c(F)cc(CCC(=O)Nc2cc(-c3ccncc3)n[nH]2)cc1F` [Example 104, 3-(4-Cyano-3,5-difluorophenyl)-N-(3-(pyridin-4-yl)-1H-pyrazol-5-yl)propanamide], for which the 50% inhibitory concentration (IC50) was under 1 µM.

On to `Cc1c(-c2ccncc2)n[nH]c1NC(=O)NCc1ccc(C#N)cc1` [Example 141, 1-[(4-Cyanophenyl)methyl]-3-[4-methyl-3-(pyridin-4-yl)-1H-pyrazol-5-yl]urea], for which the half-maximal inhibitory concentration (IC50) was under 1 µM.

`O=C(CCc1ccc(Cl)cc1)Nc1nnc(-c2ccncc2)[nH]1` [Example 162, 3-(4-Chlorophenyl)-N-(5-(pyridin-4-yl)-4H-1,2,4-triazol-3-yl)propanamide]: the IC50 is under 1 µM.

Turning to `CCc1ccc(CCC(=O)Nc2[nH]nc(-c3ccncc3)c2C)cc1` [Example 34, 3-(4-Ethylphenyl)-N-(4-methyl-3-(pyridin-4-yl)-1H-pyrazol-5-yl)propanamide], the IC50 was 1 to 10 µM.

In the case of `Cc1c(-c2ccncc2)n[nH]c1NC(=O)CCc1ccc(OC(F)(F)F)cc1` [Example 54, N-(4-Methyl-3-(pyridin-4-yl)-1H-pyrazol-5-yl)-3-(4-(trifluoromethoxy)phenyl)propanamide], the IC50 is under 1 µM.

On to `O=C1N(Cc2ccc(Cl)cc2)CCN1c1cnn(-c2ccncc2)c1` [Example 158, 1-(4-Chlorobenzyl)-3-(1-(pyridin-4-yl)-1H-pyrazol-4-yl)imidazolidin-2-one], for which the IC50 lay within 1 to 10 µM.

As to `Cc1c(NC(=O)OCc2ccc(Cl)cc2)cnn1-c1ccncc1` [Example 136, 4-Chlorobenzyl (5-methyl-1-(pyridin-4-yl)-1H-pyrazol-4-yl)carbamate], the IC50 is under 1 µM.

With `Cc1c(-c2ccncc2)n[nH]c1NC(=O)C[S+]([O-])c1ccc(Cl)cc1` (stereo not shown) [Example 120, 2-((4-chlorophenyl)sulfinyl)-N-(4-methyl-3-(pyridin-4-yl)-1H-pyrazol-5-yl)acetamide], the 50% inhibitory concentration (IC50) is under 1 µM.

`O=C1N(Cc2ccc(Cl)cc2)CCCN1c1cnn(-c2ccncc2)c1` [Example 159, 1-(4-Chlorobenzyl)-3-(1-(pyridin-4-yl)-1H-pyrazol-4-yl)tetrahydropyrimidin-2(1H)-one]: the IC50 is 1 to 10 µM.

Take `O=C(CCc1cc(F)c(Cl)c(F)c1)Nc1cnn(-c2ccncc2)c1Br` [Example 127, N-[5-Bromo-1-(pyridin-4-yl)-1H-pyrazol-4-yl]-3-(4-chloro-3,5-difluorophenyl)propanamide]: the half-inhibitory concentration (IC50) is under 1 µM.

Take `Cc1c(-c2ccncc2)n[nH]c1NC(=O)CCc1ccccc1` [Example 22, N-(4-Methyl-3-(pyridin-4-yl)-1H-pyrazol-5-yl)-3-phenylpropanamide]: the IC50 is 1 to 10 µM.

`Cc1c(-c2ccncc2)n[nH]c1NC(=O)CCc1ccc(C(F)F)cc1` [Example 57, 3-(4-(Difluoromethyl)phenyl)-N-(4-methyl-3-(pyridin-4-yl)-1H-pyrazol-5-yl)propanamide]: the IC50 is under 1 µM.

Take `Cc1c(-c2ccncc2)n[nH]c1NC(=O)CCc1cc(F)c(F)cc1F` [Example 52, N-(4-Methyl-3-(pyridin-4-yl)-1H-pyrazol-5-yl)-3-(2,4,5-trifluorophenyl)propanamide]: the IC50 is under 1 µM.

With `Cc1c(-c2ccncc2)n[nH]c1N1CCC(c2ccc(Cl)cc2)CC1=O` (stereo not shown) [Example 138, 4-(4-Chlorophenyl)-1-(4-methyl-3-(pyridin-4-yl)-1H-pyrazol-5-yl)piperidin-2-one], the concentration for half-maximal inhibition (IC50) is under 1 µM.

For `Cc1c(-c2ccncc2)n[nH]c1NC(=O)CCc1c(F)c(F)c(F)c(F)c1F` [Example 58, N-(4-Methyl-3-(pyridin-4-yl)-1H-pyrazol-5-yl)-3-(perfluorophenyl)propanamide], the 50% inhibitory concentration (IC50) was under 1 µM.

With `Cc1c(-c2ccncc2)n[nH]c1NC(=O)CS(=O)(=O)c1ccc(Cl)cc1` [Example 121, 2-((4-chlorophenyl)sulfonyl)-N-(4-methyl-3-(pyridin-4-yl)-1H-pyrazol-5-yl)acetamide], the IC50 was under 1 µM.

Turning to `O=C(CCc1cc(F)c(Cl)c(F)c1)Nc1[nH]nc(-c2ccncc2)c1Cl` [Example 97, 3-(4-Chloro-3,5-difluorophenyl)-N-(4-chloro-3-(pyridin-4-yl)-1H-pyrazol-5-yl)propanamide], the IC50 was under 1 µM.

As to `O=C(CCc1ccc(Cl)cc1)Nc1[nH]nc(-c2ccncc2)c1C1CC1` [Example 123, 3-(4-Chlorophenyl)-N-(4-cyclopropyl-3-(pyridin-4-yl)-1H-pyrazol-5-yl)propanamide], the IC50 was under 1 µM.

With `O=C(CCc1cc(F)c(Cl)c(F)c1)Nc1cnn(-c2ccncc2)c1` [Example 88, 3-(4-Chloro-3,5-difluorophenyl)-N-[1-(pyridin-4-yl)-1H-pyrazol-4-yl]propanamide], the IC50 was under 1 µM.

Regarding `Cc1cc(CCC(=O)Nc2[nH]nc(-c3ccncc3)c2C)ccc1Cl` [Example 43, 3-(4-Chloro-3-methylphenyl)-N-(4-methyl-3-(pyridin-4-yl)-1H-pyrazol-5-yl)propanamide], the IC50 is under 1 µM.

Consider `O=C(CCc1ccc(Cl)cc1)Nc1cnn(-c2ccncc2)c1Cl` [Example 90], for which the concentration for half-maximal inhibition (IC50) is under 1 µM.

For the compound `Cc1c(-c2ccncc2)n[nH]c1NC(=O)CCc1ccc(Cl)c(F)c1F` [Example 49, 3-(4-Chloro-2,3-difluorophenyl)-N-(4-methyl-3-(pyridin-4-yl)-1H-pyrazol-5-yl)propanamide], the half-maximal inhibitory concentration (IC50) is under 1 µM.

On to `O=C(CCc1ccc(Br)cc1)Nc1cnn(-c2ccncc2)c1` [Example 114, 3-(4-Bromophenyl)-N-(1-(pyridin-4-yl)-1H-pyrazol-4-yl)propanamide], for which the 50% inhibitory concentration (IC50) was under 1 µM.
